Experimental data as given in ChEMBL document CHEMBL1144566, “Synthesis, anti-tuberculosis activity, and 3D-QSAR study of 4-(adamantan-1-yl)-2-substituted quinolines” (Bioorg Med Chem, 2007).
pIC50: −log10 of the molar value.

How the values were obtained:
[1] = tested on: Mycobacterium tuberculosis; experiment: Antimycobacterial activity against drug-sensitive Mycobacterium tuberculosis H37Rv at 6.250 ug/mL relative to isoniazid by microplate alamar blue assay; type: functional
[2] = tested on: Mycobacterium tuberculosis; experiment: Antimycobacterial activity against drug-sensitive Mycobacterium tuberculosis H37Rv by microplate alamar blue assay; type: functional, organism-based
[3] = tested on: Mycobacterium tuberculosis; experiment: Antimycobacterial activity against drug-sensitive Mycobacterium tuberculosis H37Rv at 3.125 ug/mL relative to isoniazid by microplate alamar blue assay; type: functional
[4] = tested on: Mycobacterium tuberculosis; experiment: Antimycobacterial activity against drug-sensitive Mycobacterium tuberculosis H37Rv at 1000 ug/mL relative to isoniazid by microplate alamar blue assay; type: functional

SMILES	inhibition at 6.25 µg/mL [1]	pIC50 [2]	inhibition at 3.125 µg/mL [3]	inhibition at 1000 µg/mL [4]
C=CCN(CC=C)NC(=O)c1cc(C23CC4CC(CC(C4)C2)C3)c2ccccc2n1	22%	4.26	–	–
CCCN(CCC)NC(=O)c1cc(C23CC4CC(CC(C4)C2)C3)c2ccccc2n1	75%	5.29	–	–
O=C(NNC1CCCC1)c1cc(C23CC4CC(CC(C4)C2)C3)c2ccccc2n1	–	7.09	99%	–
O=C(NNCCCc1ccccc1)c1cc(C23CC4CC(CC(C4)C2)C3)c2ccccc2n1	50%	4.85	–	–
CCCNNC(=O)c1cc(C23CC4CC(CC(C4)C2)C3)c2ccccc2n1	82%	5.42	–	–
O=C(N/N=C/c1ccncc1)c1cc(C23CC4CC(CC(C4)C2)C3)c2ccccc2n1	70%	5.19	–	–
CCC(C)NNC(=O)c1cc(C23CC4CC(CC(C4)C2)C3)c2ccccc2n1 (stereo not drawn)	97%	6.29	–	–
O=C(NN(C(=O)c1ccccc1)C(=O)c1ccccc1)c1cc(C23CC4CC(CC(C4)C2)C3)c2ccccc2n1	51%	4.95	–	–
CC/C=N/NC(=O)c1cc(C23CC4CC(CC(C4)C2)C3)c2ccccc2n1	69%	5.11	–	–
O=C(NNCCc1ccccc1)c1cc(C23CC4CC(CC(C4)C2)C3)c2ccccc2n1	65%	5.10	–	–
O=C(N/N=C/c1ccc[nH]1)c1cc(C23CC4CC(CC(C4)C2)C3)c2ccccc2n1	–	7.10	99%	–
O=C(N/N=C/c1c(F)c(F)c(F)c(F)c1F)c1cc(C23CC4CC(CC(C4)C2)C3)c2ccccc2n1	16%	4.18	–	–
O=C(N/N=C/c1ccnc2cc(Cl)ccc12)c1cc(C23CC4CC(CC(C4)C2)C3)c2ccccc2n1	95%	6.18	–	–
COc1ccc(/C=N/NC(=O)c2cc(C34CC5CC(CC(C5)C3)C4)c3ccccc3n2)c2ccccc12	57%	5.02	–	–
O=C(NNc1cccc(F)c1)c1cc(C23CC4CC(CC(C4)C2)C3)c2ccccc2n1	–	7.12	99%	–
O=C(N/N=C/c1cccs1)c1cc(C23CC4CC(CC(C4)C2)C3)c2ccccc2n1	–	7.12	99%	–
CCCCNNC(=O)c1cc(C23CC4CC(CC(C4)C2)C3)c2ccccc2n1	55%	4.87	–	–
CN(C)c1ccc(/C=N/NC(=O)c2cc(C34CC5CC(CC(C5)C3)C4)c3ccccc3n2)c2ccccc12	79%	5.48	–	–
O=C(N/N=C/c1ccco1)c1cc(C23CC4CC(CC(C4)C2)C3)c2ccccc2n1	–	7.10	99%	–
CCCCN(CCCC)NC(=O)c1cc(C23CC4CC(CC(C4)C2)C3)c2ccccc2n1	64%	5.09	–	–
O=C(N/N=C/c1ccc(O)cc1)c1cc(C23CC4CC(CC(C4)C2)C3)c2ccccc2n1	73%	5.27	–	–
O=C(NNC1CCCCC1)c1cc(C23CC4CC(CC(C4)C2)C3)c2ccccc2n1	–	7.11	99%	–

SMILES	inhibition at 6.25 µg/mL [1]	pIC50 [2]	inhibition at 3.125 µg/mL [3]	inhibition at 1000 µg/mL [4]
O=C(NN(CCCc1ccccc1)CCCc1ccccc1)c1cc(C23CC4CC(CC(C4)C2)C3)c2ccccc2n1	45%	4.86	–	–
NNC(=O)c1cc(C23CC4CC(CC(C4)C2)C3)c2ccccc2n1	99%	6.71	–	–
O=C(NN(CCc1ccccc1)CCc1ccccc1)c1cc(C23CC4CC(CC(C4)C2)C3)c2ccccc2n1	55%	5.02	–	–
CC(=O)NNC(=O)c1cc(C23CC4CC(CC(C4)C2)C3)c2ccccc2n1	–	7.06	99%	–
CC(C)(C)/C=N/NC(=O)c1cc(C23CC4CC(CC(C4)C2)C3)c2ccccc2n1	10%	3.84	–	–
O=C(NNc1ccc(F)cc1)c1cc(C23CC4CC(CC(C4)C2)C3)c2ccccc2n1	93%	5.95	–	–
O=C(N/N=C/c1ccccn1)c1cc(C23CC4CC(CC(C4)C2)C3)c2ccccc2n1	84%	5.54	–	–
O=C(N/N=C/c1cccnc1)c1cc(C23CC4CC(CC(C4)C2)C3)c2ccccc2n1	53%	4.87	–	–
O=C(N/N=C/c1ccnc2ccccc12)c1cc(C23CC4CC(CC(C4)C2)C3)c2ccccc2n1	–	7.16	99%	–
O=C(N/N=C/c1ccc(C(F)(F)F)cc1C(F)(F)F)c1cc(C23CC4CC(CC(C4)C2)C3)c2ccccc2n1	64%	5.19	–	–
O=C(N/N=C/c1c2ccccc2cc2ccccc12)c1cc(C23CC4CC(CC(C4)C2)C3)c2ccccc2n1	66%	5.20	–	–
O=CNNC(=O)c1cc(C23CC4CC(CC(C4)C2)C3)c2ccccc2n1	19%	4.12	–	–
O=C(N/N=C/c1ccccc1)c1cc(C23CC4CC(CC(C4)C2)C3)c2ccccc2n1	–	7.11	99%	–
COc1ccc2ccccc2c1/C=N/NC(=O)c1cc(C23CC4CC(CC(C4)C2)C3)c2ccccc2n1	69%	5.24	–	–
CCCCCCNNC(=O)c1cc(C23CC4CC(CC(C4)C2)C3)c2ccccc2n1	77%	5.32	–	–
COc1ccc(/C=N/NC(=O)c2cc(C34CC5CC(CC(C5)C3)C4)c3ccccc3n2)cc1	20%	4.25	–	–
CCCCCCN(CCCCCC)NC(=O)c1cc(C23CC4CC(CC(C4)C2)C3)c2ccccc2n1	65%	5.14	–	–
O=C(N/N=C/c1ccccc1Cl)c1cc(C23CC4CC(CC(C4)C2)C3)c2ccccc2n1	–	7.64	–	99%
CC(C)/C=N/NC(=O)c1cc(C23CC4CC(CC(C4)C2)C3)c2ccccc2n1	63%	5.01	–	–
O=C(N/N=C/c1cccc(O)c1)c1cc(C23CC4CC(CC(C4)C2)C3)c2ccccc2n1	99%	6.83	–	–
O=C(NNc1ccccc1F)c1cc(C23CC4CC(CC(C4)C2)C3)c2ccccc2n1	99%	6.82	–	–
CC(C)NNC(=O)c1cc(C23CC4CC(CC(C4)C2)C3)c2ccccc2n1	51%	4.78	–	–
